According to US20180280340A1, “METHOD OF TREATING AND PREVENTING INFECTIONS” (priority 2017, published 2018):

Experiments:
G. vaginalis biofilm = test: biofilm production inhibition, colorimetric biofilm staining; assay type: cell-based, Gardnerella vaginalis
Procedure: As a second step, the concentrations, which inhibited biofilm production, were determined. Several concentrations of BPO were tested: 0, 31.25, 62.5, 125, and 250 μg/mL. A colorimetric method was used for biofilm staining and to determine the biofilm integrity percent after the treatment. Note that in this test, the prototype of the vaginal gel was not used, but a DMSO solution of PBO (solution required for 96-well microplate) was used. Consequently, the inhibitory concentration for G. vaginalis found in this test cannot be compared with the inhibitory concentrations for BPO-gel as found in the previous experiments (Xu et al., 2013).

G. vaginalis [1] = test: broth microdilution assay to determine MIC and sub-MICs of BPO; assay type: cell-based; conditions: Gardnerella vaginalis, DMSO solution of BPO, read-out: concentration required to completely inhibit the growth of G. vaginalis (MIC)
Text: Experimental Details: At a first step of the experiment, a broth microdilution assay was used to determine MIC and sub-MICs of BPO against G. vaginalis, a leading microorganism responsible for Bacterial Vaginosis. […] Note that in this test, the prototype of the vaginal gel was not used, but a DMSO solution of PBO (solution required for 96-well microplate) was used. Consequently, the inhibitory concentration for G. vaginalis found in this test cannot be compared with the inhibitory concentrations for BPO-gel as found in the previous experiments (Xu et al., 2013).

G. vaginalis [2] = test: bacterial cells viability under sub-MIC BPO treatment; assay type: cell-based, Gardnerella vaginalis; conditions: highest sub-MIC concentration of 250 μg/mL

## O=C(OOC(=O)c1ccccc1)c1ccccc1 [BPO, Benzoyl peroxide]
G. vaginalis biofilm; 125 μg/mL BPO
  biofilm prevention: more than 40%
G. vaginalis biofilm; Gardnerella vaginalis, 250 μg/mL BPO (sub-MIC), compared with the control, read-out: biofilm formation inhibited
  inhibition at 250 µg/mL: ~80%
G. vaginalis biofilm; around 250 μg/mL BPO
  biofilm integrity: 20%
G. vaginalis [1]
  MIC: > 250 µg/mL
G. vaginalis [2]
  bacterial cells viability: not influenced
